Assay results as given in publication PMC9120013, “Ribosome inhibition by C9ORF72-ALS/FTD-associated poly-PR and poly-GR proteins revealed by cryo-EM” (Nature Communications, 2022).
Like-named read-outs stand apart in the source and are kept apart here. Ends that are not written are not given here.

Legend:
[1] = target: translation of nanoluciferase mRNA in rabbit reticulocyte lysates; experiment: Nanoluciferase mRNA translation in rabbit reticulocyte lysate, inhibitor preincubated 5 min before mRNA; format: biochemical; settings: read-out: IC50 of translation inhibition
Text: Rabbit reticulocyte lysates (RRL, Promega) were used to investigate the inhibition of translation by DPR proteins. We independently monitored translation of two mRNAs encoding non-homologous proteins of different lengths: nanoluciferase[71] and firefly luciferase. To measure the IC50s of the translational inhibitors cycloheximide (Akros Organics), harringtonine (AbCam), GDPCP (Jena Biosciences), PR20 and GR20, we monitored the translation of nanoluciferase mRNA in nuclease-treated RRL (Promega). […] Next, 10 ng/μl (final concentration) 6xhis-Nanoluciferase mRNA flanked with the 5'- and 3'-UTR from rabbit beta-globin[48] was added and the luminescence reactions were continuously measured by an Infinite m1000 pro microplate reader (Tecan) for 15 min at 30 °C. The 1st derivative of the luminescence reactions was determined in Prism 8 (GraphPad Software, LLC) and the maximum was identified and the mean of three maximums from independent experiments for each inhibitor was taken as the rate. The rates were plotted versus inhibitors concentration, and the plots were fitted in Prism 8 (GraphPad Software, LLC) to a 3-parameter inhibition model (Y = baseline + (max-baseline)/(1 + X/IC50)) to obtain the IC50 values where the baseline was constrained to 0. This procedure was modified to separate translation initiation from translation elongation by changing the time of addition of the inhibitors to ~300 s after mRNA addition when RLUs had reached a value of ~50,000. Here, the maximum of the first derivative was taken in the 2nd or later measurement taken after inhibitor addition.
(§1) The following additional controls indicate that DPR-induced changes in fluorescence were caused by translation inhibition.

total HEK293 RNA = experiment: DPR-induced RNA aggregation, turbidity OD600; format: physicochemical; settings: for visible opalescence / OD600 change: 10 µM; for OD600 change / optical density relative to RNA alone: 100 ng/μl HEK293 RNA; for optical density relative to RNA alone: 0.2 to 1 µM, 20 min, room temperature
Protocol: To test whether arginine-containing DPR proteins cause mRNA aggregation at the DPR concentrations sufficient to inhibit protein synthesis (0.2 and 1 μM), we measured turbidity (optical density at 600 nm; OD600; similarly to[41]) of the solutions containing 100 ng/μl total HEK293 RNA. We incubated RNA with PR20, GR20, GP20 (control), or water for 20 min at room temperature. […] Optical density was measured using NanoDrop One (Thermo Scientific, Waltham, MA, USA).

nanoluciferase = experiment: Control: nanoluciferase enzyme activity after translation stopped by cycloheximide; format: biochemical; settings: 1 µM added after translation stopped by CHX; n=8
Protocol: as §1
(§2) Supplementary Fig. 1. […]
(e) Nanoluciferase mRNA was translated in
the absence of DPRs, translation was stopped by cycloheximide (CHX), then 1 µM PR20
or GR20 were added and luminescence was monitored. n=8 independent experiments;
mean of normalized RLU ± SD. […]

[2] = test system: firefly luciferase enzyme; experiment: Control: firefly luciferase enzyme activity in RRL without mRNA; format: biochemical; settings: 1 µM added after 120 s to 40 nM enzyme in RRL; n=6
Text: as §1, §2

E. coli 70S ribosomes = experiment: Erythromycin competition in the puromycin assay on 70S ribosomes; format: biochemical; settings: 20 μM erythromycin and/or 2 μM PR20, 30 nM 70S, quenched at 300 s
Protocol: The assay was performed as described above for the puromycin kinetics, except that the 70S ribosomes were pre-incubated with 22 μM erythromycin for 5 min prior to adding PR20. The stock solution of erythromycin contained 2 mM erythromycin in ethanol, so the control reaction (70S with no erythromycin) and the reactions with erythromycin were prepared to contain the same amount of ethanol (1%). The final concentrations after addition of puromycin were: 30 nM 70S, 66 nM [^35S]-fMet-tRNA^fMet, 1 μM mRNA, 2 μM PR20 (no PR20 in the control reaction), 20 μM erythromycin (or no erythromycin in a control reaction), 50 µM puromycin (in 20 mM Tris-acetate (pH 7.0), 100 mM NH4OAc, 12 mM Mg(OAc)2 and 1% ethanol). Samples were quenched at 300 s when the uninhibited reaction had reached a plateau.

[3] = 50% RRL, 5-min preincubation at 30 °C before nanoluciferase mRNA, maximal rate vs concentration, n = 3, mean ± SEM

Row | Molecule | IC50 ([1]; 33% RRL) [nM] | IC50 [1, 3] [nM] | visible opalescence (total HEK293 RNA) | OD600 change (total HEK293 RNA) | optical density relative to RNA alone (total HEK293 RNA) | effect on nanoluciferase enzyme activity (nanoluciferase) | effect on firefly luciferase enzyme activity [2] | fMet-puromycin formed (E. coli 70S ribosomes; first column (replicate 1)) | fMet-puromycin formed (E. coli 70S ribosomes; second column (replicate 2))
1 | N=C(N)NCCC[C@H](NC(=O)CNC(=O)[C@H](CCCNC(=N)N)NC(=O)CNC(=O)[C@H](CCCNC(=N)N)NC(=O)CNC(=O)[C@H](CCCNC(=N)N)NC(=O)CNC(=O)[C@H](CCCNC(=N)N)NC(=O)CNC(=O)[C@H](CCCNC(=N)N)NC(=O)CNC(=O)[C@H](CCCNC(=N)N)NC(=O)CNC(=O)[C@H](CCCNC(=N)N)NC(=O)CNC(=O)[C@H](CCCNC(=N)N)NC(=O)CNC(=O)[C@H](CCCNC(=N)N)NC(=O)CNC(=O)[C@H](CCCNC(=N)N)NC(=O)CNC(=O)[C@H](CCCNC(=N)N)NC(=O)CNC(=O)[C@H](CCCNC(=N)N)NC(=O)CNC(=O)[C@H](CCCNC(=N)N)NC(=O)CNC(=O)[C@H](CCCNC(=N)N)NC(=O)CNC(=O)[C@H](CCCNC(=N)N)NC(=O)CNC(=O)[C@H](CCCNC(=N)N)NC(=O)CNC(=O)[C@H](CCCNC(=N)N)NC(=O)CNC(=O)[C@H](CCCNC(=N)N)NC(=O)CNC(=O)[C@H](CCCNC(=N)N)NC(=O)CN)C(=O)O [GR20] | 425 | 640 | did not induce visible opalescence | increased OD600 | did not increase optical density | do not affect enzyme activity | do not affect enzyme activity |  | 
2 | PRPRPRPRPRPRPRPRPRPRPRPRPRPRPRPRPRPRPRPR [PR20] | 325 | 840 | did not induce visible opalescence | increased OD600 | did not increase optical density | do not affect enzyme activity | do not affect enzyme activity | 254 | 277
